Series [1] has as its system Hepatitis B virus. Description: Antiviral activity against hepatitis B virus-infected human HepG2.2.15 cells assessed as inhibition of HBV e antigen secretion. It is filed as functional, organism-based. Particulars: HepG2 2.2.15.
Series [2] has as its system Hepatitis B virus. Description: Antiviral activity against hepatitis B virus-infected human HepG2.2.15 cells assessed as inhibition of HBV surface antigen secretion. It is filed as functional, organism-based. Particulars: HepG2 2.2.15.
Series [3] can be described thus: Cytotoxicity against human HepG2.2.15 cells. In kind it is cell-based, HepG2 2.2.15.
Series [4] can be described thus: Selectivity index, ratio of CC50 for human HepG2.2.15 cells to IC50 for HBV e antigen secretion. It is filed as functional.
Series [5] can be described thus: Selectivity index, ratio of CC50 for human HepG2.2.15 cells to IC50 for HBV surface antigen secretion. In kind it is functional.

Each structure is given as a SMILES string. Where only a bound is given, the exact number is not on record here.

Consider 24 compounds from ChEMBL document CHEMBL1155923, “Anti-HBV agents. Part 1: Synthesis of alisol A derivatives: a new class of hepatitis B virus inhibitors” (Bioorg Med Chem Lett, 2008).

A word on the IC50: it is the concentration at which inhibition is half-maximal. The term CC50 denotes the concentration giving 50% cytotoxicity. Low readings indicate harm at low concentration, high ones better tolerance by the cells. `CCC(=O)O[C@@H](C[C@@H](C)C1=C2C[C@H](OC(=O)CC)[C@H]3[C@@]4(C)CCC(=O)C(C)(C)[C@@H]4CC[C@]3(C)[C@@]2(C)CC1)[C@@H](OC(=O)CC)C(C)(C)O`: the 50% inhibitory concentration (IC50) in the series on Hepatitis B virus [1] and with Hepatitis B virus [2] was over 1.4 mM in each case. In series [3], this compound gave a CC50 of over 1.4 mM.

As to `CCC(=O)O[C@@H](C[C@@H](C)[C@]12CC[C@@]3(C)[C@@]1(C[C@H](OC(=O)CC)[C@H]1[C@@]4(C)CCC(=O)C(C)(C)[C@@H]4CC[C@@]13C)O2)[C@@H](OC(=O)CC)C(C)(C)O`, the half-maximal inhibitory concentration (IC50) in the series on Hepatitis B virus [1] and in the series on Hepatitis B virus [2] was over 1.2 mM throughout. The compound further gave a CC50 in series [3] of over 1.2 mM.

As for `C=C(C)[C@H](OC(=O)CC)[C@H](C[C@@H](C)C1=C2C[C@H](OC(=O)CC)[C@H]3[C@@]4(C)CCC(=O)C(C)(C)[C@@H]4CC[C@]3(C)[C@@]2(C)CC1)OC(=O)CC`, the IC50 in the series with Hepatitis B virus [1] and in the series with Hepatitis B virus [2] was over 12 mM in each case. Moreover, in series [3], the 50% cytotoxic concentration (CC50) is over 1.2 mM.

In the case of `CC(=O)O[C@@H](C[C@@H](C)C1=C2C[C@H](OC(C)=O)[C@H]3[C@@]4(C)CCC(=O)C(C)(C)[C@@H]4CC[C@]3(C)[C@@]2(C)CC1)[C@@H](OC(C)=O)C(C)(C)O`, the IC50 in the series with Hepatitis B virus [1] and in the series on Hepatitis B virus [2] was over 2 mM in each case. In series [3], this compound showed a CC50 of over 2 mM.

Consider `C=C(C)[C@H](OC(C)=O)[C@H](C[C@@H](C)[C@]12CC[C@@]3(C)[C@@]1(C[C@H](OC(C)=O)[C@H]1[C@@]4(C)CCC(=O)C(C)(C)[C@@H]4CC[C@@]13C)O2)OC(C)=O`, for which the IC50 in the series with Hepatitis B virus [1] was found to be 0.028 mM; in the series on Hepatitis B virus [2] it was 0.024 mM. Moreover, the “Ratio CC50/IC50” value in series [4] is listed as over 93; in series [5], over 108. This compound also registered a CC50 in series [3] of over 2.6 mM.

Turning to `C[C@H](C[C@H](O)[C@@H](O)C(C)(C)O)[C@]12CC[C@@]3(C)[C@@]1(C[C@H](O)[C@H]1[C@@]4(C)CCC(=O)C(C)(C)[C@@H]4CC[C@@]13C)O2`, the IC50 in the series on Hepatitis B virus [1] was 1.1 mM; in the series with Hepatitis B virus [2], 0.045 mM. For the same compound, the “Ratio CC50/IC50” value in series [4] is 0.39; in series [5], 9.6. The compound further gave a CC50 in series [3] of 0.43 mM.

Regarding `C[C@H](C[C@H](O)[C@@H](O)C(C)(C)O)C1=C2C[C@H](O)[C@H]3[C@@]4(C)CCCC(C)(C)[C@@H]4CC[C@]3(C)[C@@]2(C)CC1`, the results for the IC50 in the series on Hepatitis B virus [1] and in the series with Hepatitis B virus [2] were 5.1 mM and 0.08 mM, respectively. In addition, the “Ratio CC50/IC50” value is listed as under 0.016 in series [4] and under 1 in series [5]. In addition, in series [3], the CC50 was under 0.08 mM.

On to `CC(=O)O[C@@H](C[C@@H](C)[C@]12CC[C@@]3(C)[C@@]1(C[C@H](OC(C)=O)[C@H]1[C@@]4(C)CCC(=O)C(C)(C)[C@@H]4CC[C@@]13C)O2)[C@@H](OC(C)=O)C(C)(C)O`, for which the IC50 with Hepatitis B virus [1] and with Hepatitis B virus [2] was over 2 mM throughout. The same compound showed a CC50 in series [3] of over 2 mM.

Consider `C[C@H](C[C@H](OC(=O)c1ccccc1)[C@@H](OC(=O)c1ccccc1)C(C)(C)O)C1=C2C[C@H](OC(=O)c3ccccc3)[C@H]3[C@@]4(C)CCC(=O)C(C)(C)[C@@H]4CC[C@]3(C)[C@@]2(C)CC1`, for which the IC50 in the series with Hepatitis B virus [1] and in the series on Hepatitis B virus [2] was over 1.5 mM each time. In series [3], this compound had a CC50 of over 1.5 mM.

For the compound `C=C(C)[C@H](OC(=O)c1ccccc1)[C@H](C[C@@H](C)[C@]12CC[C@@]3(C)[C@@]1(C[C@H](OC(=O)c1ccccc1)[C@H]1[C@@]4(C)CCC(=O)C(C)(C)[C@@H]4CC[C@@]13C)O2)OC(=O)c1ccccc1`, the IC50 in the series with Hepatitis B virus [1] and with Hepatitis B virus [2] was over 1.6 mM in each case. In series [3], this compound displayed a CC50 of over 1.6 mM.

`C[C@H](C[C@H](OC(=O)/C=C/c1ccccc1)[C@@H](OC(=O)/C=C/c1ccccc1)C(C)(C)O)C1=C2C[C@H](OC(=O)/C=C/c3ccccc3)[C@H]3[C@@]4(C)CCC(=O)C(C)(C)[C@@H]4CC[C@]3(C)[C@@]2(C)CC1`: the IC50 in the series on Hepatitis B virus [1] and with Hepatitis B virus [2] was over 1.4 mM in each case. This compound returned a CC50 in series [3] of over 1.4 mM.

Take `Cc1ccc(S(=O)(=O)N/N=C2\CC[C@@]3(C)[C@@H](CC[C@@]4(C)[C@H]3[C@@H](O)CC3=C([C@H](C)C[C@H](O)[C@@H](O)C(C)(C)O)CC[C@@]34C)C2(C)C)cc1`: the IC50 in the series with Hepatitis B virus [1] and with Hepatitis B virus [2] was 0.029 mM in each case. Further, the “Ratio CC50/IC50” value in series [4] and in series [5] was under 1 in each case. This compound displayed a CC50 in series [3] of under 0.029 mM.

Take `C=C(C)[C@H](OC(=O)c1ccccc1)[C@H](C[C@@H](C)C1=C2C[C@H](OC(=O)c3ccccc3)[C@H]3[C@@]4(C)CCC(=O)C(C)(C)[C@@H]4CC[C@]3(C)[C@@]2(C)CC1)OC(=O)c1ccccc1`: the IC50 with Hepatitis B virus [1] and with Hepatitis B virus [2] was over 2.3 mM throughout. This compound also returned a CC50 in series [3] of over 2.3 mM.

`C=C(C)[C@H](OC(=O)CC)[C@H](C[C@@H](C)[C@]12CC[C@@]3(C)[C@@]1(C[C@H](OC(=O)CC)[C@H]1[C@@]4(C)CCC(=O)C(C)(C)[C@@H]4CC[C@@]13C)O2)OC(=O)CC`: the IC50 in the series with Hepatitis B virus [1] was over 2.5 mM; with Hepatitis B virus [2], 0.16 mM. The compound further returned a CC50 in series [3] of over 2.5 mM. Besides, the “Ratio CC50/IC50” value in series [5] was over 16.

Regarding `CC(C)C(=O)O[C@@H](C[C@@H](C)[C@]12CC[C@@]3(C)[C@@]1(C[C@H](OC(=O)C(C)C)[C@H]1[C@@]4(C)CCC(=O)C(C)(C)[C@@H]4CC[C@@]13C)O2)[C@@H](OC(=O)C(C)C)C(C)(C)O`, the IC50 in the series with Hepatitis B virus [1] and in the series with Hepatitis B virus [2] was over 1.9 mM each time. Also, in series [3], the half-maximal cytotoxic concentration (CC50) was over 1.9 mM.

Consider `C=C(C)[C@H](OC(=O)/C=C/c1ccccc1)[C@H](C[C@@H](C)C1=C2C[C@H](OC(=O)/C=C/c3ccccc3)[C@H]3[C@@]4(C)CCC(=O)C(C)(C)[C@@H]4CC[C@]3(C)[C@@]2(C)CC1)OC(=O)/C=C/c1ccccc1`, for which the IC50 with Hepatitis B virus [1] and in the series with Hepatitis B virus [2] was over 1.8 mM in each case. This compound registered a 50% cytotoxic concentration (CC50) in series [3] of over 1.8 mM.

In the case of `CC(C)C(=O)O[C@@H](C[C@@H](C)C1=C2C[C@H](OC(=O)C(C)C)[C@H]3[C@@]4(C)CCC(=O)C(C)(C)[C@@H]4CC[C@]3(C)[C@@]2(C)CC1)[C@@H](OC(=O)C(C)C)C(C)(C)O`, the IC50 in the series with Hepatitis B virus [1] is 0.9 mM; in the series on Hepatitis B virus [2], 1.7 mM. For the same compound, the “Ratio CC50/IC50” value in series [4] is given as over 2.4; in series [5], over 1.3. Further, the CC50 in series [3] is over 2.2 mM.

Regarding `C=C(C)[C@H](OC(=O)C(C)C)[C@H](C[C@@H](C)[C@]12CC[C@@]3(C)[C@@]1(C[C@H](OC(=O)C(C)C)[C@H]1[C@@]4(C)CCC(=O)C(C)(C)[C@@H]4CC[C@@]13C)O2)OC(=O)C(C)C`, the IC50 with Hepatitis B virus [1] and in the series with Hepatitis B virus [2] was over 1.3 mM each time. Also, in series [3], the 50% cytotoxic concentration (CC50) is over 1.3 mM.

Turning to `C=C(C)[C@H](OC(=O)/C=C/c1ccccc1)[C@H](C[C@@H](C)[C@]12CC[C@@]3(C)[C@@]1(C[C@H](OC(=O)/C=C/c1ccccc1)[C@H]1[C@@]4(C)CCC(=O)C(C)(C)[C@@H]4CC[C@@]13C)O2)OC(=O)/C=C/c1ccccc1`, the IC50 with Hepatitis B virus [1] and in the series with Hepatitis B virus [2] was over 1.6 mM in each case. In series [3], this compound displayed a CC50 of over 1.6 mM.

Regarding `C[C@H](C[C@H](OC(=O)c1ccccc1)[C@@H](OC(=O)c1ccccc1)C(C)(C)O)[C@]12CC[C@@]3(C)[C@@]1(C[C@H](OC(=O)c1ccccc1)[C@H]1[C@@]4(C)CCC(=O)C(C)(C)[C@@H]4CC[C@@]13C)O2`, the IC50 in the series with Hepatitis B virus [1] is 1.1 mM; in the series with Hepatitis B virus [2] it was over 1.7 mM. The “Ratio CC50/IC50” value in series [4] was over 1.5. Further, the half-maximal cytotoxic concentration (CC50) in series [3] is over 1.7 mM.

For the compound `C=C(C)[C@H](OC(=O)C(C)C)[C@H](C[C@@H](C)C1=C2C[C@H](OC(=O)C(C)C)[C@H]3[C@@]4(C)CCC(=O)C(C)(C)[C@@H]4CC[C@]3(C)[C@@]2(C)CC1)OC(=O)C(C)C`, the IC50 with Hepatitis B virus [1] and in the series on Hepatitis B virus [2] was over 1.6 mM each time. In series [3], this compound yielded a CC50 of over 1.6 mM.

In the case of `C=C(C)[C@H](OC(C)=O)[C@H](C[C@@H](C)C1=C2C[C@H](OC(C)=O)[C@H]3[C@@]4(C)CCC(=O)C(C)(C)[C@@H]4CC[C@]3(C)[C@@]2(C)CC1)OC(C)=O`, the IC50 is 0.029 mM in the series on Hepatitis B virus [1] and 0.028 mM in the series on Hepatitis B virus [2]. The “Ratio CC50/IC50” value in series [4] and in series [5] was 18 in each case. For the same compound, in series [3], the CC50 stood at 0.52 mM.

`C[C@H](C[C@H](OC(=O)/C=C/c1ccccc1)[C@@H](OC(=O)/C=C/c1ccccc1)C(C)(C)O)[C@]12CC[C@@]3(C)[C@@]1(C[C@H](OC(=O)/C=C/c1ccccc1)[C@H]1[C@@]4(C)CCC(=O)C(C)(C)[C@@H]4CC[C@@]13C)O2`: the IC50 in the series on Hepatitis B virus [1] was 1 mM; with Hepatitis B virus [2] it was over 1.3 mM. Further, the “Ratio CC50/IC50” value in series [4] is over 1.3. Moreover, in series [3], the 50% cytotoxic concentration (CC50) is over 1.3 mM.

On to `C[C@H](C[C@H](O)[C@@H](O)C(C)(C)O)C1=C2C[C@H](O)[C@H]3[C@@]4(C)CCC(=O)C(C)(C)[C@@H]4CC[C@]3(C)[C@@]2(C)CC1` [ALISOL A], for which the values for the IC50 in the series on Hepatitis B virus [1] and in the series with Hepatitis B virus [2] were over 2.4 mM and 0.039 mM, respectively. Also, the “Ratio CC50/IC50” value is under 0.03 in series [4] and 1.6 in series [5]. In addition, half-maximal cytotoxicity in series [3] (CC50) was put at 0.062 mM.
